According to US9849154B2, “Synergistic combination of alanine-glutamine, hyaluronic acid and oat extract and the use thereof in a composition intended for healing wounds and repairing skin lesions” (PIERRE FABRE DERMO-COSMETIQUE, priority 2013, dated 2017):
Residues, ends and D or L forms follow the SMILES beside them.

Tested on: HaCaT human keratinocyte line
Test: Oris Cell Migration Assay: migration of keratinocytes
Format: cell-based
Conditions: DMEM 0% FCS; for % Migration (control 0% FCS = 100) / Average ± SD (fluorescence intensity, FI): 24 h
Description: The objective of this test was to evaluate the effect of hyaluronic acid, oat seedling extract, L-alanyl-L-glutamine and combinations thereof on the migration of keratinocytes using the Oris Cell Migration Assay kit (Platypus Technologies).
The spontaneously immortalised HaCaT human keratinocyte line, frequently cited as reference model in the literature was used.
The protocol used for the study of cell migration is based on the use of a 96 well kit, the Oris Cell Migration Assay (Platypus technologies—TEBU), enabling the miniaturisation and the quantification of this cellular process.
The principle of this test consists in studying cell migration towards the centre of the wells of the 96 well plate. It consists in placing a stopper in the wells, in order to create a 2 mm diameter detection zone. Then removing the stoppers once cells have properly adhered to the surface around them, and thus to enable cells to migrate towards the detection zone. The plates without stoppers and with the active ingredients are incubated at 37° C. for 24 hours in DMEM (Dulbecco's Modified Eagle Medium) 0% FCS (foetal calf serum). The quantity of cells situated in the zone where the stopper was is analysed in order to evaluate the migration of the cells. A mask makes it possible to visualise and to count uniquely the cells situated in this zone. For each condition, the average is determined on 6 to 8 wells.
The cells were incubated in FCS-free medium.
• EGF: 33 ng/ml, • oat seedling extract: 10 or 30 μg/ml,
Filtering. Concentration by drying until a dry extract is obtained. • sodium hyaluronate (molecular weight 250-450 kDa): 20 or 60 μg/ml, • L-alanyl-L-glutamine: 40 or 90 μg/ml. Analysis of the Results
The Results are Expressed: • In fluorescence intensity (FI), proportional to the quantity of cells having migrated. • In percentage activity compared to the control 0% FCS.
[formula] Statistical Analyses
Statistical analyses by the Dunnett test were carried out on the crude migration values. This test then gives “p value” values characterising the significance of the results obtained for different conditions. The degree of significance was fixed at
The results at different concentrations of the effect of oat seedling extract, hyaluronic acid and L-alanyl-L-glutamine, alone or in combination on the migration of keratinocytes are indexed in tables 1 and 2 then represented in the single FIGURE. The fluorescence intensity values represented on this curve correspond to an average of 6 to 8 measurements carried out during an experiment representative of 3 independent manipulations.

| Compound | effect on the migration of keratinocytes (in words) (L-alanyl-L-glutamine alone, 40 or 90 μg/ml) | % Migration (control 0% FCS = 100) (Table 1, 40 μg/ml) [%] | Average ± SD (fluorescence intensity, FI) (Table 1, 40 μg/ml) | % Migration (control 0% FCS = 100) (Table 2, 90 μg/ml) [%] | Average ± SD (fluorescence intensity, FI) (Table 2, 90 μg/ml) | % Migration (control 0% FCS = 100) (Table 1, EGF 33 ng/ml) [%] | Average ± SD (fluorescence intensity, FI) (Table 1, EGF 33 ng/ml) | Average ± SD (fluorescence intensity, FI) (Table 2, EGF 33 ng/ml) | % Migration (control 0% FCS = 100) (Table 2, EGF 33 ng/ml, * p < 0.05 versus control) | effect on the migration of keratinocytes (in words) (positive control, EGF 33 ng/ml) |
| --- | --- | --- | --- | --- | --- | --- | --- | --- | --- | --- |
| C[C@H](N)C(=O)N[C@@H](CCC(N)=O)C(=O)O [ALANYL GLUTAMINE, L-alanyl-L-glutamine] (H-Ala-Gln-OH) | induces the migration of keratinocytes in a concentration-dependent manner | 200 | 2471 ± 788 | 194 | 2586 ± 1092 | – | – | – | – | – |
| EGF: EGF, positive control of the migration experiments, 33 ng/ml | – | – | – | – | – | 216 | 2569± | 3553 ± 1556 | 301 * % | induces the migration of keratinocytes |
